Experimental findings from ChEMBL document CHEMBL4359880, “PROTACs and Targeted Protein Degradation for Treating ALK-Mediated Cancers” (2019) are described below.

Test [1] deals with T1, von Hippel-Lindau disease tumor suppressor/ALK tyrosine kinase receptor (Homo sapiens) (UniProt Q9UM73+P40337). As to the kind of experiment: Protac activity at VHL/ALK in human NCI-H3122 cells assessed as increase in degradation of ALK at 500 nM by Western blot analysis relative to control. It counts as cell-based. In general terms: In western blotting, separated proteins are transferred to a membrane and probed.

For test [2], the system named is SU-DHL-1. As to the kind of experiment: Cytotoxicity against human SUDHL1 cells assessed as cell growth at 40 nM incubated for 2.5 days by CCk8 assay relative to control. It counts as functional. As to conditions: SU-DHL-1, 60 h.
Test [3] concerns the target T1, von Hippel-Lindau disease tumor suppressor/ALK tyrosine kinase receptor (Homo sapiens). As to the kind of experiment: Protac activity at VHL/ALK in human SUDHL1 cells assessed as increase in degradation of ALK at 30 nM by Western blot analysis relative to control. It counts as cell-based.
Test [4] has as its system SU-DHL-1. Description: Cytotoxicity against human SUDHL1 cells assessed as cell growth at 12 nM incubated for 2.5 days by CCk8 assay relative to control. It counts as functional. To be noted: SU-DHL-1, 60 h.
Test [5] deals with SU-DHL-1. Description: Cytotoxicity against human SUDHL1 cells assessed as cell growth at 100 nM incubated for 2.5 days by CCk8 assay relative to control. It counts as functional. As to conditions: SU-DHL-1, 60 h.

Each structure is given as a SMILES string.

T1 sequence (P40337 whole entry partner): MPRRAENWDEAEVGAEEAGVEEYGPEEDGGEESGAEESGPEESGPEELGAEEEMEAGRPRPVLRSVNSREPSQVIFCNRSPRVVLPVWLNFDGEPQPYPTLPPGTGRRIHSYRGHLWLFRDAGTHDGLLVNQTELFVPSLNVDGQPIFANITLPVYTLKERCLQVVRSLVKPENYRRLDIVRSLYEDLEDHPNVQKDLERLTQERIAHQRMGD
T1 sequence (Q9UM73 19-1620 limits assumed): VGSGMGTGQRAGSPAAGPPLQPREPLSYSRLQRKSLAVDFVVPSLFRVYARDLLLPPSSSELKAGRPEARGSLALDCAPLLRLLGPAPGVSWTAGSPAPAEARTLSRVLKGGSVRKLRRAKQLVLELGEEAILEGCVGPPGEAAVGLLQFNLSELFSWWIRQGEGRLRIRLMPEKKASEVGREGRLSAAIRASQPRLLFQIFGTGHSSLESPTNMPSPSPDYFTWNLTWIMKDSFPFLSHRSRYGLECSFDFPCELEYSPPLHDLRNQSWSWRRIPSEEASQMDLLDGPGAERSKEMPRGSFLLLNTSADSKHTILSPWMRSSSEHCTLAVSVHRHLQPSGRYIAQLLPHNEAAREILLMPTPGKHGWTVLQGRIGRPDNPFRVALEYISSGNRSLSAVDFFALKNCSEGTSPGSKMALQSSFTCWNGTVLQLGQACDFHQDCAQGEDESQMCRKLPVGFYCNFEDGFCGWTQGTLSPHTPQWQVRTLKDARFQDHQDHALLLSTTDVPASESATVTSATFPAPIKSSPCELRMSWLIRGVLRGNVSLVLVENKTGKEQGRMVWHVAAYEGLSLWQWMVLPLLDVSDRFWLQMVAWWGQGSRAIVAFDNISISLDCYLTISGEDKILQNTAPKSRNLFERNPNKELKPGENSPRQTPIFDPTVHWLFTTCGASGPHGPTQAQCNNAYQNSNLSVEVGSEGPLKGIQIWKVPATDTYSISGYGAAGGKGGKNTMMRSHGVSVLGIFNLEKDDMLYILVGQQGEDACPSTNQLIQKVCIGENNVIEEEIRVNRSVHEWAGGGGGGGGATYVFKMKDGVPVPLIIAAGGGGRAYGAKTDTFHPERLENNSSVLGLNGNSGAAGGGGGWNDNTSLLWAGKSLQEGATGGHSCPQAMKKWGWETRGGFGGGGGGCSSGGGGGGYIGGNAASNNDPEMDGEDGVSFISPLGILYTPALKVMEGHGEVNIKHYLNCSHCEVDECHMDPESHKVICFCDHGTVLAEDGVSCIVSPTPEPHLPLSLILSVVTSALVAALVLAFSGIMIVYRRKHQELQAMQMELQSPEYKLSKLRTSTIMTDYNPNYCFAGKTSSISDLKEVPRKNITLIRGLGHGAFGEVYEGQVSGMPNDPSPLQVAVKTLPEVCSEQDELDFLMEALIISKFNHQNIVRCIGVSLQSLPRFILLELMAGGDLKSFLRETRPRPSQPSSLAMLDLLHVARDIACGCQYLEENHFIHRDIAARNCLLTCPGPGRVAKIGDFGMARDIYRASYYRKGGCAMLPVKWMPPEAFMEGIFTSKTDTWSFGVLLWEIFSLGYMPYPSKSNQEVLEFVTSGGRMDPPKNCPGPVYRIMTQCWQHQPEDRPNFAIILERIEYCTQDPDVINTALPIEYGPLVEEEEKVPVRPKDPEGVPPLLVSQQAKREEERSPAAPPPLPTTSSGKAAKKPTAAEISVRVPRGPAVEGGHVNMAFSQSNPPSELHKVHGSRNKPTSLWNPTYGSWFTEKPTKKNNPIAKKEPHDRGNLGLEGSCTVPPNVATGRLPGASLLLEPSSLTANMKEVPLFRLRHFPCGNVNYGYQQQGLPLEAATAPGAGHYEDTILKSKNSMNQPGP

Take `Cc1cc(Nc2ncc(Cl)c(Nc3ccccc3S(=O)(=O)C(C)C)n2)c(OC(C)C)cc1C1CCN(C(=O)CCCC(=O)N[C@H](C(=O)N2C[C@H](O)C[C@H]2C(=O)N[C@@H](C)c2ccc(-c3scnc3C)cc2)C(C)(C)C)CC1`: the Activity in test [1] is over 80%.
In the case of `Cc1cc(Nc2ncc(Cl)c(Nc3ccccc3S(=O)(=O)C(C)C)n2)c(OC(C)C)cc1C1CCN(CC(=O)NCCOCCOCCOCCOCCNc2cccc3c2C(=O)N(C2CCC(=O)NC2=O)C3=O)CC1` (centres undefined), the growth, % of control at 0.04 µM with SU-DHL-1 [2] came to 67%. Further, the Activity in test [3] was over 80%. The growth, % of control at 0.012 µM in the test with SU-DHL-1 [4] is 97.7%. Moreover, the growth, % of control at 0.1 µM in the test with SU-DHL-1 [5] turned out to be 3.5%.
Consider `Cc1cc(Nc2ncc(Cl)c(Nc3ccccc3S(=O)(=O)C(C)C)n2)c(OC(C)C)cc1C1CCN(CC(=O)NCCNc2cccc3c2C(=O)N(C2CCC(=O)NC2=O)C3=O)CC1` (centres undefined), for which the growth, % of control at 0.04 µM with SU-DHL-1 [2] is 30.5%. In test [3], the Activity was over 80%. In addition, in the test on SU-DHL-1 [4], the growth, % of control at 0.012 µM turned out to be 80.6%. Besides, the growth, % of control at 0.1 µM in the test with SU-DHL-1 [5] is 2.1%.
On to `Cc1cc(Nc2ncc(Cl)c(Nc3ccccc3S(=O)(=O)C(C)C)n2)c(OC(C)C)cc1C1CCN(C(=O)COCCOCC(=O)N[C@H](C(=O)N2C[C@H](O)C[C@H]2C(=O)N[C@@H](C)c2ccc(-c3scnc3C)cc2)C(C)(C)C)CC1`, for which the Activity in test [1] is over 80%.
As to `Cc1cc(Nc2ncc(Cl)c(Nc3ccccc3S(=O)(=O)C(C)C)n2)c(OC(C)C)cc1C1CCN(CC(=O)NCCOCCOCCOCCOCCOCCNc2cccc3c2C(=O)N(C2CCC(=O)NC2=O)C3=O)CC1` (centres undefined), in the test on SU-DHL-1 [2], the growth, % of control at 0.04 µM was found to be 47.5%. For the same molecule, the Activity in test [3] is over 80%. Moreover, the growth, % of control at 0.012 µM with SU-DHL-1 [4] was found to be 94.5%. The growth, % of control at 0.1 µM with SU-DHL-1 [5] turned out to be 3.9%.
